Measurements: patent US12268661B2, “Methods of treating ascites” (Martin Pharmaceuticals, Inc., priority 2019, dated 2025)
Like-named read-outs stand apart in the source and are kept apart here. Each block holds one molecule with its values, some of them ahead of it.

Legend:
[1] = system: cirrhotic patients with refractory ascites; test: Open-label, single-arm clinical study of docarpamine in cirrhotic subjects with refractory ascites; assay type: in vivo, human
Experimental: An open-label, single-arm study in which each subject serves as his/her own control is conducted. The study assesses the effect of DCP treatment on ascites formation in cirrhotic subjects with RA, by examining the frequency of LVP and the volume of ascitic fluid drained. All subjects participate in a 90-day open-label treatment period. […] Ascites history (relevant medications, LVP dates, and volume of drained fluid) for the 90 days prior to treatment and the 90 days after treatment are collected and used for comparison with on-treatment frequency and volume. The study population consists of cirrhotic patients between 18 and 70 years of age, inclusive, with refractory ascites, subject to the following inclusion and exclusion criteria. • Patients 18 years to 70 years of age. • Documented cirrhosis of the liver. • Refractory ascites, defined as ascites not manageable with diuretics and diet restriction, managed with periodic large volume therapeutic paracentesis. • Patients must have therapeutic […] 3 days prior to enrollment and a documented minimum of 3 additional therapeutic […] 90 days prior to enrollment, with at least 1 every 30 days. • Outpatient, with expected survival of at least 6 months. • Willing and able to complete an informed consent form. […] Results

RA patients = conditions: small cohort of RA patients (Funasaki 1999); cited from earlier work
[2] = Dopamine levels after oral administration of docarpamine in non-Asian versus Asian populations; assay type: in vivo, human; conditions: non-Asian (especially Caucasian) compared to Asian (especially Japanese) populations
[3] = system: dopamine receptors, beta1 adrenoceptors, alpha-adrenoceptors; conditions: cited from earlier work
patients with RA = conditions: cited from earlier work
[4] = oral administration, high rates of metabolism in gut/small intestine and liver, cited from earlier work
[5] = dopamine 2 ug/kg/min, patients with RA (Lin 1998)

variability in the resulting dopamine levels [2]: high degree of variability
Structure (SMILES): CCOC(=O)Oc1ccc(CCNC(=O)[C@H](CCSC)NC(C)=O)cc1OC(=O)OCC [docarpamine]
dose groups in which effects are observed ([1]; 750 mg 3 times per day (2250 mg) versus 1500 mg 3 times per day (4500 mg), 90 days): only in the high dose (4500 mg per day group) | time without requiring LVP ([1]; 1500 mg 3 times per day (4500 mg per day), 90 days treatment): Some patients do not require LVP for more than one month and others do not require LVP for more than two months | renin and/or aldosterone levels ([1]; 4500 mg per day group, 90 days): reduced, in some cases to normal, in many patients | sodium excretion and other markers of renal function ([1]; 4500 mg per day group, 90 days): Increased sodium excretion and other markers of improved renal function respond positively | frequency of LVP and/or volume of ascites removed over 90 days ([1]; 4500 mg per day group, 90 days, versus own history): reduced by more than half on average | urinary output ([1]; 4500 mg per day group, most patients, from 500-1000 ml before, 'or more'): 1500 to 2000 mL | response (need for LVP) ([1]; some patients, 2250 mg per day in combination with diuretics (furosemide and/or spironolactone)): enhanced response (decreased need for LVP) | efficacy in refractory ascites (RA patients): effective

Structure (SMILES): NCCc1ccc(O)c(O)c1 [dopamine]
effect at low rates of infusion ([3]; 0.5-2 mcg/kg/min, renal, mesenteric, coronary, intracerebral vascular beds): vasodilation | effect at intermediate rates of infusion ([3]; 2-10 mcg/kg/min, beta1 adrenoceptor stimulation): improved myocardial contractility, increased sino-atrial rate and enhanced impulse conduction in the heart | effect at higher rates of infusion ([3]; 10-20 mcg/kg/min, alpha-adrenoceptors): vasoconstrictor effects and a rise in blood pressure | effect at very high rates of infusion ([3]; above 20 mcg/kg/min, alpha-adrenoceptor stimulation predominates): reversing renal dilation and natriuresis | effect when administered intravenously ([3]; intravenous): natriuretic and positive inotropic effects | GFR (patients with RA; dopamine 1.5 ug/kg/min (Bacq 1991)): did not enhance | urine volume and GFR (patients with RA; dopamine 2 ug/kg/min (Espiritu 1972)): non-significant increases | changes of blood urea nitrogen, creatinine, creatinine clearance, blood pressure, pulse rate, serum sodium, serum aldosterone and GFR (patients with RA; [5]): no difference | effective renal plasma flow (patients with RA; [5]): Positive effects | GFR (patients with RA; dopamine 200 ug/min): did not significantly change | urine volume, urine sodium or GFR (patients with RA; dopamine 1.3-3 ug/kg/min (Barnardo 1970)): did not change | oral bioavailability [4]: not orally bioavailable | oral bioavailability ([4]; listed as Dopamine): not bioavailable when administered orally

Structure (SMILES): Oc1ccc(C2CNCCc3c2cc(O)c(O)c3Cl)cc1 (centres unmarked) [fenoldopam]
urine volume or urine sodium (patients with RA; Hadengue 1991): failed to increase
